Experimental data reported in ChEMBL document CHEMBL3774322, “New orally active diphenylmethyl-based ester analogues of dihydroartemisinin: Synthesis and antimalarial assessment against multidrug-resistant Plasmodium yoelii nigeriensis in mice” (Bioorg Med Chem Lett, 2016).
The source made the active and inactive calls. The calls are words filed in the database; no cut-off is given here.

Legend:
[1] = test system: Plasmodium yoelii nigeriensis; assay: (§1) Antimalarial activity against blood stage multidrug-resistant Plasmodium yoelii nigeriensis infected swiss mouse assessed as protection against Plasmodium yoelii nigeriensis infection at 48 mg/kg, po administered once daily for 3 days measured on day 4 and subsequently twice a week up to 28 days by microscopy; format: functional
[2] = Lipophilicity, logP of compound; format: physicochemical; details: octanol/water
[3] = test system: Plasmodium yoelii nigeriensis; assay: Antimalarial activity against blood stage multidrug-resistant Plasmodium yoelii nigeriensis infected swiss mouse assessed as suppression of parasitaemia at 48 mg/kg, po administered once daily for 3 days measured on day 4 by microscopic analysis relative to control; format: functional
[4] = test system: Plasmodium yoelii nigeriensis; assay: Antimalarial activity against blood stage multidrug-resistant Plasmodium yoelii nigeriensis infected swiss mouse assessed as suppression of parasitaemia at 24 mg/kg, po administered once daily for 3 days measured on day 4 by microscopic analysis relative to control; format: functional
[5] = test system: Plasmodium yoelii nigeriensis; assay: Antimalarial activity against blood stage multidrug-resistant Plasmodium yoelii nigeriensis infected swiss mouse assessed as suppression of parasitaemia at 12 mg/kg, po administered once daily for 3 days measured on day 4 by microscopic analysis relative to control; format: functional
[6] = test system: Plasmodium yoelii nigeriensis; assay: Antimalarial activity against blood stage multidrug-resistant Plasmodium yoelii nigeriensis infected swiss mouse assessed as protection […] at 24 mg/kg, po administered once daily for 3 days measured after 28 days by microscopy; format: functional, organism-based
[7] = test system: Plasmodium yoelii nigeriensis; assay: Antimalarial activity against blood stage multidrug-resistant Plasmodium yoelii nigeriensis infected swiss mouse assessed as protection […] at 24 mg/kg, po administered once daily for 3 days measured on day 4 and subsequently twice a week up to 28 days by microscopy; format: functional
[8] = test system: Plasmodium yoelii nigeriensis; assay: Antimalarial activity against blood stage multidrug-resistant Plasmodium yoelii nigeriensis infected swiss mouse assessed as protection against Plasmodium yoelii nigeriensis infection at 12 mg/kg, po administered once daily for 3 days measured after 28 days by microscopy; format: functional, organism-based
[9] = test system: Plasmodium yoelii nigeriensis; assay: as §1, with “12” for “48”; format: functional
[10] = test system: Plasmodium yoelii nigeriensis; assay: Antimalarial activity against blood stage multidrug-resistant Plasmodium yoelii nigeriensis infected swiss mouse assessed as protection against […] infection at 6 mg/kg, po administered once daily for 3 days measured on day 4 and subsequently twice a week up to 28 days by microscopy; format: functional, organism-based
[11] = test system: Plasmodium yoelii nigeriensis; assay: Antimalarial activity against blood stage multidrug-resistant Plasmodium yoelii nigeriensis infected swiss mouse assessed as protection against […] infection at 6 mg/kg, po administered once daily for 3 days measured after 28 days by microscopy; format: functional, organism-based
[12] = test system: Plasmodium yoelii nigeriensis; assay: Antimalarial activity against blood stage multidrug-resistant Plasmodium yoelii nigeriensis infected swiss mouse assessed as suppression of parasitaemia at 6 mg/kg, po administered once daily for 3 days measured on day 4 by microscopic analysis relative to control; format: functional

C[C@H]1[C@H](OC(=O)CCc2ccccc2)O[C@@H]2O[C@@]3(C)CC[C@H]4[C@H](C)CC[C@@H]1[C@@]24OO3
Activity [1]: 100%
logP [2]: 5.63
inhibition in vivo at 48 mg/kg [3]: 100%
inhibition in vivo at 24 mg/kg [4]: 100%

C[C@H]1[C@H](OC(=O)CC(c2ccc(Br)cc2)c2ccc(Br)cc2)O[C@@H]2O[C@@]3(C)CC[C@H]4[C@H](C)CC[C@@H]1[C@@]24OO3
inhibition in vivo at 12 mg/kg [5]: 100%
Activity [6]: inactive
Activity [1]: 100%
logP [2]: 8.81
inhibition in vivo at 48 mg/kg [3]: 100%
Activity [7]: 100%
Activity [8]: inactive
inhibition in vivo at 24 mg/kg [4]: 100%
Activity [9]: inactive

CC(=O)O[C@@H]1O[C@@H]2O[C@@]3(C)CC[C@H]4[C@H](C)CC[C@@H]([C@H]1C)[C@@]24OO3
logP [2]: 3.37
inhibition in vivo at 48 mg/kg [3]: 100%
Activity [7]: inactive
inhibition in vivo at 24 mg/kg [4]: 99%

C[C@H]1[C@H](OC(=O)C(c2ccccc2)c2ccccc2)O[C@@H]2O[C@@]3(C)CC[C@H]4[C@H](C)CC[C@@H]1[C@@]24OO3
inhibition in vivo at 12 mg/kg [5]: 100%
Activity [1]: 100%
logP [2]: 6.97
inhibition in vivo at 48 mg/kg [3]: 100%
Activity [10]: inactive
Activity [7]: 100%
inhibition in vivo at 24 mg/kg [4]: 100%
Activity [11]: inactive
inhibition in vivo at 6 mg/kg [12]: 100%
Activity [9]: 100%

COc1ccc(C(CC(=O)O[C@@H]2O[C@@H]3O[C@@]4(C)CC[C@H]5[C@H](C)CC[C@@H]([C@H]2C)[C@@]35OO4)c2ccc(OC)cc2)cc1
inhibition in vivo at 12 mg/kg [5]: 100%
Activity [1]: 100%
logP [2]: 6.9
inhibition in vivo at 48 mg/kg [3]: 100%
Activity [10]: inactive
Activity [7]: 100%
inhibition in vivo at 24 mg/kg [4]: 100%
Activity [11]: inactive
inhibition in vivo at 6 mg/kg [12]: 100%
Activity [9]: 80%

CCCCCC(=O)O[C@@H]1O[C@@H]2O[C@@]3(C)CC[C@H]4[C@H](C)CC[C@@H]([C@H]1C)[C@@]24OO3
Activity [1]: 100%
logP [2]: 5.28
inhibition in vivo at 48 mg/kg [3]: 100%
Activity [7]: inactive
inhibition in vivo at 24 mg/kg [4]: 100%

C[C@H]1[C@H](OC(=O)CC(c2ccc(Cl)cc2)c2ccc(Cl)cc2)O[C@@H]2O[C@@]3(C)CC[C@H]4[C@H](C)CC[C@@H]1[C@@]24OO3
inhibition in vivo at 12 mg/kg [5]: 96%
Activity [6]: inactive
Activity [1]: 100%
logP [2]: 8.27
inhibition in vivo at 48 mg/kg [3]: 100%
Activity [7]: 100%
Activity [8]: inactive
inhibition in vivo at 24 mg/kg [4]: 100%
Activity [9]: inactive

C[C@H]1[C@H](OC(=O)CC(c2ccc(F)cc2)c2ccc(F)cc2)O[C@@H]2O[C@@]3(C)CC[C@H]4[C@H](C)CC[C@@H]1[C@@]24OO3
inhibition in vivo at 12 mg/kg [5]: 100%
Activity [1]: 100%
logP [2]: 7.47
inhibition in vivo at 48 mg/kg [3]: 100%
Activity [10]: inactive
Activity [7]: 100%
inhibition in vivo at 24 mg/kg [4]: 100%
Activity [11]: inactive
inhibition in vivo at 6 mg/kg [12]: 100%
Activity [9]: 80%

CCCCCCC(=O)O[C@@H]1O[C@@H]2O[C@@]3(C)CC[C@H]4[C@H](C)CC[C@@H]([C@H]1C)[C@@]24OO3
Activity [1]: 100%
logP [2]: 5.7
inhibition in vivo at 48 mg/kg [3]: 100%
inhibition in vivo at 24 mg/kg [4]: 100%

C[C@H]1[C@H](OC(=O)CC(c2ccccc2)c2ccccc2)O[C@@H]2O[C@@]3(C)CC[C@H]4[C@H](C)CC[C@@H]1[C@@]24OO3
inhibition in vivo at 12 mg/kg [5]: 100%
Activity [6]: inactive
Activity [1]: 100%
logP [2]: 7.15
inhibition in vivo at 48 mg/kg [3]: 100%
Activity [7]: 100%
Activity [8]: inactive
inhibition in vivo at 24 mg/kg [4]: 100%
Activity [9]: inactive
